Biological target: Acetylcholinesterase (Electrophorus electricus, UniProt O42275)
Test: AChE Inhibitory Assay
Conditions: pH 7.7
Method: The mixture was incubated at 25 °C for 5 min. Subsequently, the enzymatic reaction was initiated by addition of 15 µL of 1 mM of acetylthiocholine iodide or butyrylthiocholine iodide (according to the respective enzyme), and the mixture was again incubated for 5 min at 25 °C. The rate of absorbance change was measured at 412 nm for 6 min using a microplate reader (Bio-Rad 680, Germany). Galantamine was applied as positive drug.

Acetylcholinesterase, sequence (O42275 whole entry): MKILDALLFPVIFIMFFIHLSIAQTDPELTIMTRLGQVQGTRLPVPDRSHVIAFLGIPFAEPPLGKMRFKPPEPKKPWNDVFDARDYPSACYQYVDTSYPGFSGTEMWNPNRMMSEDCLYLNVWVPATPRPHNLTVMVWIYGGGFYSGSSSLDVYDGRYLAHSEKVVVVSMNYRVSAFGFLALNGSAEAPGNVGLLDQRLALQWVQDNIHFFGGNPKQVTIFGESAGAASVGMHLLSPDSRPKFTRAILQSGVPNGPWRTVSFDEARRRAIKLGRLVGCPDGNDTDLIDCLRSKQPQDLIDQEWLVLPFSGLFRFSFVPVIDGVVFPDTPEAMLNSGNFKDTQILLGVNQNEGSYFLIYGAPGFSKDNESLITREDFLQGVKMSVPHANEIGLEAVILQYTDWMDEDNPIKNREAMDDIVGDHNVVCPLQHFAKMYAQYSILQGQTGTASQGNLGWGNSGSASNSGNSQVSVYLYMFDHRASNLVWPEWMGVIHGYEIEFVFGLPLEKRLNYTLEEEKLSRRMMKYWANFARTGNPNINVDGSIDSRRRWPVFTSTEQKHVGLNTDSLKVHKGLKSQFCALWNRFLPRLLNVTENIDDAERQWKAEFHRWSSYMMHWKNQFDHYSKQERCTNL

SMILES	IC50
CC(NC(=O)c1cc2c(ccc3ccc(=O)oc32)oc1=N)c1ccccc1 (configuration not stated) [8-imino-2-oxo-N-(1-phenylethyl)-2H,8H-pyrano[2,3-f]chromene-9-carboxamide (4h)]	0.462 µM
N=c1oc2ccc3ccc(=O)oc3c2cc1C(=O)N1CCOCC1 [8-imino-9-(morpholine-4-carbonyl)-2H,8H-pyrano[2,3-f]chromen-2-one (4f)]	0.226 µM
COc1ccc(C(C)NC(=O)c2cc3c(ccc4ccc(=O)oc43)oc2=N)cc1 (configuration not stated) [8-imino-N-(1-(4-methoxyphenyl)ethyl)-2-oxo-2H,8Hpyrano[2,3-f]chromene-9-carboxamide (4j)]	0.39 µM
COc1ccccc1OCCNC(=O)c1cc2c(ccc3ccc(=O)oc32)oc1=N [8-imino-N-(2-(2-methoxyphenoxy)ethyl)-2-oxo-2H,8H-pyrano[2,3-f]chromene-9-carboxamide (4q)]	0.44 µM
CNC(=O)c1cc2c(ccc3ccc(=O)oc32)oc1=N [8-imino-N-methyl-2-oxo-2H,8H-pyrano[2,3-f]chromene-9-carboxamide (4a)]	0.415 µM
COc1ccc(CNC(=O)c2cc3c(ccc4ccc(=O)oc43)oc2=N)c(OC)c1 [N-(2,4-dimethoxybenzyl)-8-imino-2-oxo-2H,8H-pyrano[2,3-f]chromene-9-carboxamide (4k)]	0.3 µM
N=c1oc2ccc3ccc(=O)oc3c2cc1C(=O)NCc1ccccc1Br [N-(2-bromobenzyl)-8-imino-2-oxo-2H,8H-pyrano[2,3-f]chromene-9-carboxamide (4l)]	0.027 µM
N=c1oc2ccc3ccc(=O)oc3c2cc1C(=O)NCc1ccccc1Cl [N-(2-chlorobenzyl)-8-imino-2-oxo-2H,8H-pyrano[2,3-f]chromene-9-carboxamide (4n)]	0.03 µM
N=c1oc2ccc3ccc(=O)oc3c2cc1C(=O)NCc1cccc(Br)c1 [N-(3-bromobenzyl)-8-imino-2-oxo-2H,8H-pyrano[2,3-f]chromene-9-carboxamide (4m)]	0.013 µM
N=c1oc2ccc3ccc(=O)oc3c2cc1C(=O)NCc1cccc(Cl)c1 [N-(3-chlorobenzyl)-8-imino-2-oxo-2H,8H-pyrano[2,3-f]chromene-9-carboxamide (4o)]	0.088 µM
Cc1cc(=O)oc2c1ccc1oc(=N)c(C(=O)NCc3ccc(C(C)(C)C)cc3)cc12 [N-(4-(tert-butyl)benzyl)-8-imino-4-methyl-2-oxo-2H,8H-pyrano[2,3-f]chromene-9-carboxamide (4p)]	0.077 µM
N=c1oc2ccc3ccc(=O)oc3c2cc1C(=O)NC(c1ccccc1)c1ccccc1 [N-benzhydryl-8-imino-2-oxo-2H,8H-pyrano[2,3-f]chromene-9-carboxamide (4i)]	0.669 µM
N=c1oc2ccc3ccc(=O)oc3c2cc1C(=O)NCc1ccccc1 [N-benzyl-8-imino-2-oxo-2H,8H-pyrano[2,3-f]chromene-9-carboxamide (4g)]	0.497 µM
N=c1oc2ccc3ccc(=O)oc3c2cc1C(=O)NC1CCCCC1 [N-cyclohexyl-8-imino-2-oxo-2H,8H-pyrano[2,3-f]chromene-9-carboxamide (4e)]	0.169 µM
N=c1oc2ccc3ccc(=O)oc3c2cc1C(=O)NC1CC1 [N-cyclopropyl-8-imino-2-oxo-2H,8H-pyrano[2,3-f]chromene-9-carboxamide (4d)]	0.799 µM
CCCCCCCCCCCCNC(=O)c1cc2c(ccc3ccc(=O)oc32)oc1=N [N-dodecyl-8-imino-2-oxo-2H,8H-pyrano[2,3-f]chromene-9-carboxamide (4c)]	0.083 µM
CCNC(=O)c1cc2c(ccc3ccc(=O)oc32)oc1=N [N-ethyl-8-imino-2-oxo-2H,8H-pyrano[2,3-f]chromene-9-carboxamide (4b)]	0.259 µM

Reference: BindingDB's records for doi:10.1111/cbdd.12732 (Yogi Vemana University, 2016)
